Assay [1] addresses T1, human thyroid receptor beta ligand-binding domain (LBD) (Homo sapiens, UniProt P10828).
T1 construct: purchased Invitrogen
T1 sequence (P10828 217-461 limits assumed): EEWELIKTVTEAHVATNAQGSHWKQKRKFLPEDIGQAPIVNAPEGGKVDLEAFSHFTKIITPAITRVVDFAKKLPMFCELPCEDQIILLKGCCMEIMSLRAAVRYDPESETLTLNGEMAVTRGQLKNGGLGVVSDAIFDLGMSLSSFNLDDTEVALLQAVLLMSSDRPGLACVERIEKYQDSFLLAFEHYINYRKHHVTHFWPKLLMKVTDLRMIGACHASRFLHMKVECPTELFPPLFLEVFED
The assay is described as follows: TR-FRET thyroid receptor beta coactivator assay (THR biochemical assay, Assay 1). The following applies: for EC50: THR-beta, TR-FRET coactivator assay, read-out: Activity category Assay 1 (EC50, THR-beta agonist); for Emax: Table 5, Assay 1, THRβ, read-out: Activity category Assay 1 THRβ (Emax). A digest of the protocol:
(§1)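 Agonist-driven coactivator recruitment measured by TR-FRET: terbium anti-GST antibody (2 nM) bound to GST-LBD of TRβ or TRα (1 nM final, stated for β), with fluorescein SRC2-2 peptide at 200 nM. Compounds at 1% DMSO. Read after 1 h, room temperature, protected from light.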

Another assay deals with T2, THR alpha (Homo sapiens, UniProt P10827).
T2 construct: expressed in transfected cells; host or cells: HEK293T (ATCC CRL-3216)
T2 sequence (P10827 1-410 isoform P10827-2): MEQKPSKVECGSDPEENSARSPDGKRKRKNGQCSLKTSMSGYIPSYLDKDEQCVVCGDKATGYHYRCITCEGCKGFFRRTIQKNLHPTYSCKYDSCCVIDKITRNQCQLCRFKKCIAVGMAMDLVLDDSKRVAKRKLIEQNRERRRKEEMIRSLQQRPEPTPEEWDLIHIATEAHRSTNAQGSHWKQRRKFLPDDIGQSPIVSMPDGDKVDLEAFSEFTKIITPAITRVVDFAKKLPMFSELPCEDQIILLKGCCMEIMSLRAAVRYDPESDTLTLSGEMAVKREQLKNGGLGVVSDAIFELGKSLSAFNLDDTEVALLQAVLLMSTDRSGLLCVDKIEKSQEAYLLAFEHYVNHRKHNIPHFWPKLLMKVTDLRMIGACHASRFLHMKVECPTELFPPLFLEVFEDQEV
T2 sequence (P19793 1-462 partner): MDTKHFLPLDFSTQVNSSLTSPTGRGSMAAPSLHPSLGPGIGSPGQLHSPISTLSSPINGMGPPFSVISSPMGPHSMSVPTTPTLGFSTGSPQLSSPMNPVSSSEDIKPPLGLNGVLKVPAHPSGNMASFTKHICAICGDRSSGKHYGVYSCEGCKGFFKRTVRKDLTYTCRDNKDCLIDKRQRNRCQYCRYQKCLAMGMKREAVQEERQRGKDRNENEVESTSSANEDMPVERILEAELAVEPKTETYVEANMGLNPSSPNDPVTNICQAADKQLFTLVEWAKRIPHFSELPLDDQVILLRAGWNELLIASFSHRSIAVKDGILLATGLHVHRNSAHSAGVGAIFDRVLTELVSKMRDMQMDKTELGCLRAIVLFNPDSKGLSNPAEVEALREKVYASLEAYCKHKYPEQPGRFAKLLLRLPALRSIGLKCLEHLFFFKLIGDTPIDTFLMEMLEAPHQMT
Description: HEK293T THR alpha/RXR luciferase reporter assay (Assay 2). It is filed as cell-based. The following applies: Assay 2; for Emax: HEK-293T, Table 5, THRα, read-out: Activity category Assay 2 THRα (Emax); for EC50: Table 4, THR-alpha, read-out: Activity category Assay 2 (EC50, THR-alpha agonist activity). As for the experimental part:
(§2) HEK293T Reporter THRalpha/Beta/RXR Reporter Assay (Assay 2)
(§3) The purpose of this assay is to evaluate the effect of compounds on the thyroid hormone nuclear receptor pathway in HEK293T cells. To this end, HEK293T cells are transiently transfected with a luciferase reporter under the control of the thyroid response element (TRE), an RXR expression plasmid and either a THR alpha or THR beta expression plasmid. Transfected cells are stimulated with test compounds for 18-24 hours before activation of the thyroid hormone pathway is measured via a luciferase read-out.
(§4) Procedure. […] Ten five-fold dilutions of test compounds are prepared in DMSO and 30 nL are dispensed to the cells. […] Approximately 18-24 h after compound addition, 384 well plates are allowed to adjust to rt, 30 μL One-Glo (Promega catalog #E6120) is added to each well and luminescence is measured on a Perkin Elmer Enspire plate reader. Percent agonism is calculated using the following equation: 100× (sample-negative control)/(positive control-negative control).

Assay [2] addresses T3, human thyroid receptor alpha ligand-binding domain (LBD) (Homo sapiens, UniProt P10827).
T3 construct: purchased Invitrogen
The assay is described as follows: TR-FRET thyroid receptor alpha coactivator assay (THR biochemical assay, Assay 1). Particulars: for EC50: Table 4, THR-alpha, read-out: Activity category Assay 1 (EC50, THR-alpha agonist activity); for Emax: Table 5, THRα, read-out: Activity category Assay 1 THRα (Emax). A digest of the protocol: as §1
Background: TR-FRET usually uses a lanthanide donor and a delayed reading to cut background.

The next assay concerns the target T4, THR beta (Homo sapiens, UniProt P10828).
T4 construct: expressed in transfected cells; host or cells: HEK293T (ATCC CRL-3216)
T4 sequence (P10828 1-461): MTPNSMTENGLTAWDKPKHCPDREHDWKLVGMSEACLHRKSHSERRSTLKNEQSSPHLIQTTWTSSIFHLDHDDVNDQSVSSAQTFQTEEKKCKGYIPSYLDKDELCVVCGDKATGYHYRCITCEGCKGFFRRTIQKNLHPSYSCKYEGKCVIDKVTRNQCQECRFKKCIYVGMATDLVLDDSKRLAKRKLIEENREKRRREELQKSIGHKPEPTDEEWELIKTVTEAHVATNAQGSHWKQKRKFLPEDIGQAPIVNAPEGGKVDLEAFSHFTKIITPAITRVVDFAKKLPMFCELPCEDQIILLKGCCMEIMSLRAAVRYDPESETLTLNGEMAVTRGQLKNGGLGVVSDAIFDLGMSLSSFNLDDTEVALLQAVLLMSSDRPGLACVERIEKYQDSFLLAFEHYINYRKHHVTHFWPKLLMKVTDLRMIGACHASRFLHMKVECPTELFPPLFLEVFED
T4 sequence (P19793 1-462 partner): T2 sequence (P19793 1-462 partner)
Description: HEK293T THR beta/RXR luciferase reporter assay (Assay 2). It is filed as cell-based. The following applies: for Emax: HEK-293T, Table 5, Assay 2, THRβ, read-out: Activity category Assay 2 THRβ (Emax); for EC50: THR-beta, HEK293T reporter assay, read-out: Activity category Assay 2 (EC50, THR-beta agonist). As to the method:
as §2, §3, §4
On the technique in general: A reporter such as luciferase makes a cellular process visible.

On to `CC(C)c1cc(Oc2c(Cl)cc(-c3nn(C(F)F)c(=O)[nH]c3=O)cc2Cl)n[nH]c1=O` [Compound 28, 6-[3,5-dichloro-4-[(5-isopropyl-6-oxo-1H-pyridazin-3-yl)oxy]phenyl]-2-(difluoromethyl)-4H-1,2,4-triazine-3,5-dione], for which the EC50 (as a rule, the concentration that produces a half-maximal response) lay within 50 to 250 nM in assay [1], 1000 to 10000 nM at THR alpha, 250 to 1000 nM in assay [2] and 250 to 1000 nM on THR beta. The Emax (commonly the greatest response seen or fitted, relative to the assay's reference) in assay [1] is less than 50%; at THR alpha, 50 to 75%; in assay [2], 50 to 75%; on THR beta, more than 75%.

For `CCCCCc1n[nH]c2ccc(Cc3c(C)cc(-n4nc(C#N)c(=O)[nH]c4=O)cc3C)cc12` [Compound 32], the EC50 was less than 50 nM in assay [1], 50 to 250 nM at THR alpha, less than 50 nM in assay [2] and 50 to 250 nM on THR beta. Moreover, the Emax was more than 75% in assay [1], more than 75% at THR alpha, 50 to 75% in assay [2] and more than 75% at THR beta.

For `Cc1c(-n2nc(N)c(=O)[nH]c2=O)cc(Cl)c(Oc2cc(C(C)C)c(=O)[nH]n2)c1Cl` [Compound 35, 6-amino-2-[3,5-dichloro-4-[(5-isopropyl-6-oxo-1H-pyridazin-3-yl)oxy]-2-methyl-phenyl]-4H-1,2,4-triazine-3,5-dione], the EC50 in assay [1] lay within 1000 to 25000 nM; on THR alpha, 1000 to 10000 nM; in assay [2] it was 1000 to 25000 nM; on THR beta it was 1000 to 10000 nM. Further, the Emax was 50 to 75% in assay [1], less than 50% at THR alpha, 50 to 75% in assay [2] and 50 to 75% at THR beta.

Regarding `CC(C)c1cc(Cc2c(Cl)cc(-n3nc(N)c(=O)[nH]c3=O)cc2Cl)n[nH]c1=O` [Compound 36, 6-Amino-2-[3,5-dichloro-4-[(5-isopropyl-6-oxo-1H-pyridazin-3-yl)methyl]-phenyl]-4H-1,2,4-triazine-3,5-dione], the EC50 is less than 50 nM in assay [1], less than 50 nM at THR alpha, 50 to 250 nM in assay [2] and less than 50 nM at THR beta. Besides, the Emax in assay [1] was 50 to 75%; on THR alpha, less than 50%; in assay [2], 50 to 75%; at THR beta, 50 to 75%.

On to `Cc1cc(-n2nc(N)c(=O)[nH]c2=O)cc(Cl)c1Oc1cc(C(C)C)c(=O)[nH]n1` [Compound 37, 6-Amino-2-[3-chloro-4-[(5-isopropyl-6-oxo-1H-pyridazin-3-yl)oxy]-5-methyl-phenyl]-4H-1,2,4-triazine-3,5-dione], for which the EC50 fell in the range of 50 to 250 nM in assay [1], 50 to 250 nM at THR alpha, 250 to 1000 nM in assay [2] and 50 to 250 nM on THR beta. Besides, the Emax in assay [1] was 50 to 75%; on THR alpha, 50 to 75%; in assay [2] it was 50 to 75%; at THR beta, more than 75%.

In the case of `Cc1cc(-n2nc(N)c(=O)[nH]c2=O)cc(C)c1Oc1cc(C(C)C)c(=O)[nH]n1` [Compound 38, 6-Amino-2-[4-[(5-isopropyl-6-oxo-1H-pyridazin-3-yl)oxy]-3,5-dimethylphenyl]-4H-1,2,4-triazine-3,5-dione], the EC50 is 250 to 1000 nM in assay [1], more than 10000 nM on THR alpha, 1000 to 25000 nM in assay [2] and 250 to 1000 nM on THR beta. The maximal effect (Emax) in assay [1] was 50 to 75%; on THR alpha, less than 50%; in assay [2], more than 75%; at THR beta, more than 75%.

For the compound `CC(C)c1c[nH]c2ccc(Oc3c(Cl)cc(-n4nc(N)c(=O)[nH]c4=O)cc3Cl)cc12` [Compound 41, 6-amino-2-[3,5-dichloro-4-[(3-isopropyl-1H-indol-5-yl)oxy]phenyl]-4H-1,2,4-triazine-3,5-dione], the EC50 (in assay [1]; at THR alpha; in assay [2]; at THR beta) was less than 50 nM each time. Moreover, the Emax in assay [1] was 50 to 75%; on THR alpha, 50 to 75%; in assay [2], 50 to 75%; at THR beta it was more than 75%.

Consider `CC(c1c[nH]c2ccc(Oc3c(Cl)cc(-n4nc(C#N)c(=O)[nH]c4=O)cc3Cl)cc12)C(F)(F)F` (centres unmarked) [Compound 45, 2-(3,5-dichloro-4-[[3-(1,1,1-trifluoropropan-2-yl)-1H-indol-5-yl]oxy]phenyl)-3,5-dioxo-4H-1,2,4-triazine-6-carbonitrile], for which the concentration giving a half-maximal response (EC50) in assay [1] is less than 50 nM; on THR alpha it was 250 to 1000 nM; in assay [2], less than 50 nM; at THR beta it was 50 to 250 nM. Moreover, the maximal effect (Emax) in assay [1] is less than 50%; at THR alpha, more than 75%; in assay [2] it was less than 50%; on THR beta, more than 75%.

`N#Cc1nn(-c2cc(Cl)c(Oc3ccc4[nH]cc(Cc5ccccc5)c4c3)c(Cl)c2)c(=O)[nH]c1=O` [Compound 46, 2-[4-[(3-benzyl-1H-indol-5-yl)oxy]-3,5-dichlorophenyl]-3,5-dioxo-4H-1,2,4-triazine-6-carbonitrile]: the concentration giving a half-maximal response (EC50) in assay [1] is less than 50 nM; at THR alpha it was more than 10000 nM; in assay [2], more than 25000 nM; on THR beta, 1000 to 10000 nM. The maximal effect (Emax) in assay [1] is less than 50%; at THR alpha it was less than 50%; in assay [2], less than 50%; on THR beta it was 50 to 75%.

Consider `N#Cc1nn(-c2cc(Cl)c(Oc3ccc4[nH]ccc4c3)c(Cl)c2)c(=O)[nH]c1=O` [Compound 47, 2-[3,5-dichloro-4-(1H-indol-5-yloxy)phenyl]-3,5-dioxo-4H-1,2,4-triazine-6-carbonitrile], for which the concentration for a half-maximal effect (EC50) in assay [1] is less than 50 nM; on THR alpha, 1000 to 10000 nM; in assay [2], less than 50 nM; at THR beta it was 1000 to 10000 nM. In addition, the Emax is less than 50% in assay [1], more than 75% at THR alpha, less than 50% in assay [2] and more than 75% at THR beta.

Source of the values: patent US12180192B2, “Modulators of THR-β and methods of use thereof” (ALIGOS THERAPEUTICS, INC., priority 2019, dated 2024).
